Assay results published in patent publication US20090226500A1, “SUTURES AND ANTI-SCARRING AGENTS” (Angiotech Pharmaceuticals, Inc, priority 2006, published 2009).
Where a name gives a salt, the structure may show the parent alone.

Tested on: human fibroblasts
Assay: Cell proliferation of fibroblasts
Assay type: cell-based
Conditions: Fibroblast, 72 h, read-out: IC50 cell proliferation of fibroblasts
Method: Fibroblasts at 70-90% confluency are trypsinized, replated at 600 cells/well in media in 96-well plates and allowed to attachment overnight. […] Each drug concentration is tested in triplicate wells. Plates containing fibroblasts and drug substance are incubated at 37° C. for 72 hours.
To terminate the assay, the media is removed by gentle aspiration. A 1/400 dilution of CYQUANT 400×GR™ dye indicator (Molecular Probes; Eugene, Oreg.) is added to 1× Cell Lysis buffer, and 200 μL of the mixture is added to the wells of the plate. Plates are incubated at room temperature, protected from light for 3-5 minutes.

| Structure (SMILES) | IC50 |
| --- | --- |
| NCCCNCCCCNCCCN [Spermine tetrahydrochloride] | 0.6 to 1.2 µM |

Same assay, conditions: Fibroblast, 72 hours, CYQUANT, read-out: IC50 cell proliferation of fibroblasts

| Structure (SMILES) | IC50 |
| --- | --- |
| CO[C@H]1/C=C\C=C(/C)C(=O)NC2=CC(=O)C(NCCN(C)C)=C(C[C@@H](C)C[C@H](OC)[C@H](O)[C@@H](C)/C=C(\C)[C@@H]1OC(N)=O)C2=O [17-DMAG, 17-dimethylaminoethylamino-17-demethoxy-geldanamycin] | 0.0001 to 0.01 µM |
| O=C(O)C[C@H](O)C[C@H](O)/C=C/c1c(C2CC2)nc2ccccc2c1-c1ccc(F)cc1 [Pitavastatin] | 0.1 to 0.6 µM |
| CC[C@H](C)C(=O)O[C@H]1C[C@H](O)C=C2C=C[C@H](C)[C@H](CC[C@@H](O)C[C@@H](O)CC(=O)O)[C@H]21 [Pravastatin] | 1.2 to 10 µM |
| O=c1c(O)c(-c2ccc(O)c(O)c2)oc2cc(O)cc(O)c12 [Quercetin dihydrate] | 0.1 to 0.6 µM |
| C#C[C@]1(O)CC[C@H]2[C@@H]3CCc4cc(OC5CCCC5)ccc4[C@H]3CC[C@@]21C [Quinestrol, 17a-Ethynylestradiot 3-cyclopentyl ether] | 1.2 to 10 µM |
| C[C@@H]1C[C@H]2O[C@@H]2/C=C\C=C\C(=O)Cc2c(Cl)c(O)cc(O)c2C(=O)O1 [Radicicol] | 0.01 to 0.1 µM |
| Cc1nc2ccc(CN(C)c3ccc(C(=O)N[C@@H](CCC(=O)O)C(=O)O)s3)cc2c(=O)[nH]1 [Raltitrexed] | 0.01 to 0.1 µM |
| COc1ccc(C2CNC(=O)C2)cc1OC1CCCC1 (stereo not drawn) [Rolipram] | 0.1 to 0.6 µM |
| CC(C)c1nc(N(C)S(C)(=O)=O)nc(-c2ccc(F)cc2)c1/C=C/[C@@H](O)C[C@@H](O)CC(=O)O [Rosuvastatin] | 1.2 to 10 µM |
| CC(=O)c1c(O)c(C)c(O)c(Cc2c(O)c3c(c(C(=O)/C=C/c4ccccc4)c2O)OC(C)(C)C=C3)c1O [Rottlerin] | 1.2 to 10 µM |
| CC(=O)OCC(=O)NCCCOc1cccc(CN2CCCCC2)c1 [Roxatidine acetate] | 0.6 to 1.2 µM |
| Nc1nccc(-c2c(-c3ccc(F)cc3)ncn2C2CCNCC2)n1 [SB 220025] | 1.2 to 10 µM |
| COc1cccc(-c2ccc(NC(=O)C3=C(C(=O)O)CCC3)c(F)c2)c1 [SC12267] | 1.2 to 10 µM |
| Nc1nc2c(cnn2CCc2ccccc2)c2nc(-c3ccco3)nn12 [SCH-58261] | 1.2 to 10 µM |
| CCCCCCCCCCCCCCC[C@H](O)[C@@H](N)CO [Safingol, L-threo-Dihydrosphingosine] | 0.6 to 1.2 µM |
| O=C(/C=C/c1ccccc1)NC(NC(=S)Nc1cccc2cccnc12)C(Cl)(Cl)Cl (stereo not drawn) [Salubrinal] | 1.2 to 10 µM |

| Structure (SMILES) | IC50 |
| --- | --- |
| CCCc1nn(C)c2c(=O)[nH]c(-c3cc(S(=O)(=O)N4CCN(C)CC4)ccc3OCC)nc12 [Sildenafil Citrate] | 1.2 to 10 µM |
| NCCCCNCCCN [Spermidine trihydrochloride] | 1.2 to 10 µM |
| Cc1ccnc(NS(=O)(=O)c2ccc(N)cc2)n1 [Sulfamerazine] | 1.2 to 10 µM |
| COc1cc([C@@H]2c3cc4c(cc3[C@@H](O[C@@H]3O[C@@H]5CO[C@@H](c6cccs6)O[C@H]5[C@H](O)[C@H]3O)[C@H]3COC(=O)[C@H]23)OCO4)cc(OC)c1O [Teniposide] | 0.01 to 0.1 µM |
| CN(C/C=C/C#CC(C)(C)C)Cc1cccc2ccccc12 [Terbinafine] | 0.01 to 0.1 µM |
| C/C=C(/C)C(=O)O[C@H]1C(C)=C2[C@H]([C@@H]1OC(=O)CCCCCCC)[C@@](C)(OC(C)=O)C[C@H](OC(=O)CCC)[C@@]1(O)[C@H]2OC(=O)[C@@]1(C)O [Thapsigargin] | 0.0001 to 0.01 µM |
| Cn1c(=O)c2[nH]cnc2n(C)c1=O [Theophylline] | 0.0001 to 0.01 µM |
| Cc1cccc(Nc2ccncc2S(=O)(=O)NC(=O)NC(C)C)c1 [Torasemide] | 0.01 to 0.1 µM |
| CC(=O)Oc1cc(C(F)(F)F)ccc1C(=O)O [Triflusal] | 0.01 to 0.1 µM |
| CC(C)[C@]12O[C@H]1[C@@H]1O[C@]13[C@]1(O[C@H]1C[C@H]1C4=C(CC[C@@]13C)C(=O)OC4)[C@@H]2O [Triptolide] | 0.0001 to 0.01 µM |
| Oc1ccnc(O)n1 [Uracil, 2,4-Dihydroxypyrimidine] | 0.01 to 0.1 µM |
| CC[C@]12CCCN3CCc4c(n(c5ccccc45)[C@@](O)(C(=O)OC)C1)[C@@H]32 [Vincamine] | 0.0001 to 0.01 µM |
| CC(=O)CC(c1ccccc1)c1c(O)c2ccccc2oc1=O (stereo not drawn) [Warfarin, 3-(a-Acetonylbenzyl)-4-hydroxycoumarin sodium salt] | 0.0001 to 0.01 µM |
| COc1cc(O)c2c(c1)oc(=O)c1c3cc(O)c(O)cc3oc21 [Wedelolactone] | 1.2 to 10 µM |
| CO[C@H]1C[C@@H]2CC[C@@H](C)[C@@](O)(O2)C(=O)C(=O)N2CCCC[C@H]2C(=O)O[C@H]([C@H](C)C[C@@H]2CC[C@H](n3cnnn3)[C@H](OC)C2)CC(=O)[C@H](C)/C=C(\C)[C@@H](O)[C@@H](OC)C(=O)[C@H](C)C[C@H](C)/C=C/C=C/C=C/1C [Zotarolimus] | 0.0001 to 0.01 µM |
| C/C1=C/C[C@@H](/C(C)=C/c2csc(C)n2)OC(=O)C[C@H](O)C(C)(C)C(=O)[C@H](C)[C@@H](O)[C@@H](C)CCC1 [epothilone D] | 0.01 to 0.1 µM |

Tested on: MCP-1 production by THP-1 cells
Assay: MCP-1 production by macrophages
Assay type: cell-based, human
Conditions: THP-1 cells stimulated with opsonized zymosan, 24 hours; read-out: IC50 MCP-1 production
Method: The human macrophage cell line, THP-1 was plated in a 12 well plate such that each well contains 1×10^6 cells in 2 ml of media containing 10% FCS. Opsonized zymosan was prepared by resuspending 20 mg of zymosan A in 2 ml of ddH2O and homogenizing until a uniform suspension was obtained. Homogenized zymosan was pelleted at 250 g and resuspended in 4 ml of human serum for a final concentration of 5 mg/ml and incubated in a 37° C. water bath for 20 minutes to enable opsonization. Geldanamycin was prepared in DMSO at a concentration of 10^−2 M and serially diluted 10-fold to give a range of stock concentrations (10^−8 M to 10^−2 M).
THP-1 cells were stimulated to produce MCP-1 by the addition of 1 mg/ml opsonized zymosan. […] was added to THP-1 cells by directly adding DMSO stock solutions, prepared earlier, at a 1/1000 dilution, to each well. Each drug concentration was tested in triplicate wells. Plates were incubated at 37° C. for 24 hours.
After a 24-hour stimulation, supernatants were collected to quantify MCP-1 production. MCP-1 concentrations in the supernatants were determined by ELISA using recombinant human MCP-1 to obtain a standard curve. A 96-well MaxiSorb plate was coated with 100 μL of anti-human MCP-1 Capture Antibody diluted in Coating Buffer (0.1M sodium carbonate pH 9.5) overnight at 4° C. The dilution of Capture Antibody used was lot-specific and was determined empirically. Capture antibody was then aspirated and the plate washed 3 times with Wash Buffer (PBS, 0.05% TWEEN-20). Plates were blocked for 1 hour at room temperature with 200 μL/well of Assay Diluent (PBS, 10% FCS pH 7.0). After blocking, plates were washed 3 times with Wash Buffer. […] Sample supernatants and standards were assayed in triplicate and were incubated at room temperature for 2 hours after addition to the plate coated with Capture Antibody. The plates were washed 5 times and incubated with 100 μL of Working Detector (biotinylated anti-human MCP-1 detection antibody+avidin-HRP) for 1 hour at room temperature. Following this incubation, the plates were washed 7 times and 100 μL of Substrate Solution (tetramethylbenzidine, H2O2) was added to plates and incubated for 30 minutes at room temperature. […] Mean absorbance was determined from triplicate data readings and the mean background was subtracted. MCP-1 concentration values were obtained from the standard curve.

| Structure (SMILES) | IC50 |
| --- | --- |
| C=C1/C(=C\C=C2/CCC[C@]3(C)[C@@H]([C@H](C)CCCC(C)(C)O)CC[C@@H]23)C[C@@H](O)C[C@@H]1O [1-α-25 dihydroxy vitamin D3] | 0.001 µM |
| CC1(C)CN[Se]c2ccccc21 [BXT-51072] | 0.683 µM |
| O=C(O)CCCCN(CCc1ccccc1OCc1ccc(CCc2ccccc2)cc1)Cc1ccc(C(=O)O)cc1 [Bay 58-2667] | 0.216 µM |
| Nc1ccn([C@@H]2O[C@H](CO)[C@@H](O)C2(F)F)c(=O)n1 [gemcitabine] | 0.05 µM |
| COc1ccc(C[C@H](N)C(=O)N[C@H]2[C@@H](O)[C@H](n3cnc4c(N(C)C)ncnc43)O[C@@H]2CO)cc1 [puromycin] | 0.161 µM |
| CC[C@]1(O)C[C@H]2CN(CCc3c([nH]c4ccccc34)[C@@](C(=O)OC)(c3cc4c(cc3OC)N(C=O)[C@H]3[C@@](O)(C(=O)OC)[C@H](OC(C)=O)[C@]5(CC)C=CCN6CC[C@]43[C@@H]65)C2)C1 [vincristine] | 0.016 µM |

Tested on: Smooth muscle cells
Assay: Proliferation of smooth muscle cells
Assay type: cell-based
Conditions: 72 h, read-out: IC50 proliferation of smooth muscle cells
Method: Smooth muscle cells at 70-90% confluency were trypsinized, replated at 600 cells/well in media in 96-well plates and allowed to attachment overnight. Paclitaxel was prepared in DMSO at a concentration of 10^−2 M and diluted 10-fold to give a range of stock concentrations (10^−8 M to 10^−2 M). […] Each drug concentration was tested in triplicate wells. Plates containing cells and paclitaxel were incubated at 37° C. for 72 hours.
To terminate the assay, the media was removed by gentle aspiration A 1/400 dilution of CYQUANT 400×GR dye indicator (Molecular Probes; Eugene, Oreg.) was added to 1× Cell Lysis buffer, and 200 μL of the mixture was added to the wells of the plate. Plates were incubated at room temperature, protected from light for 3-5 minutes.

| Structure (SMILES) | IC50 |
| --- | --- |
| C/C1=C/C[C@@H](/C(C)=C/c2csc(C)n2)OC(=O)C[C@H](O)C(C)(C)C(=O)[C@H](C)[C@@H](O)[C@@H](C)CCC1 [epothilone D] | 0.005 µM |

Same assay, conditions: 72 hours, CYQUANT; read-out: IC50 proliferation of smooth muscle cells

| Structure (SMILES) | IC50 |
| --- | --- |
| CO[C@H]1/C=C\C=C(/C)C(=O)NC2=CC(=O)C(NCCN(C)C)=C(C[C@@H](C)C[C@H](OC)[C@H](O)[C@@H](C)/C=C(\C)[C@@H]1OC(N)=O)C2=O [17-DMAG, 17-dimethylaminoethylamino-17-demethoxy-geldanamycin] | 0.017 µM |
| Nc1nc(Cl)nc2c1ncn2[C@H]1C[C@H](O)[C@@H](CO)O1 [cladribine, 2-Chloro-2-deoxyadenosine] | 0.137 µM |
| C=C1[C@@H](C)[C@H]2[C@H](Cc3ccccc3)NC(=O)[C@]23OC(=O)/C=C/C(=O)CCC[C@@H](C)C/C=C/[C@H]3[C@@H]1O [cytochalasin A] | 0.221 µM |
| Nc1ccn([C@@H]2O[C@H](CO)[C@@H](O)C2(F)F)c(=O)n1 [gemcitabine] | 0.009 µM |
| CC(=O)[C@]1(O)Cc2c(O)c3c(c(O)c2[C@@H](O[C@H]2C[C@H](N)[C@H](O)[C@H](C)O2)C1)C(=O)c1ccccc1C3=O [idarubicin] | 0.038 µM |
| CCC(C)n1ncn(-c2ccc(N3CCN(c4ccc(OCC5COC(Cn6cncn6)(c6ccc(Cl)cc6Cl)O5)cc4)CC3)cc2)c1=O (stereo not drawn) [itraconazole] | 0.795 µM |
| CC[C@H](C)C(=O)O[C@H]1C[C@@H](C)C=C2C=C[C@H](C)[C@H](CC[C@@H]3C[C@@H](O)CC(=O)O3)[C@H]21 [lovastatin] | 0.978 µM |
| CO[C@@]12[C@H](COC(N)=O)C3=C(C(=O)C(C)=C(N)C3=O)N1C[C@@H]1N[C@@H]12 [mitomycin C] | 0.053 µM |
| COC(=O)[C@@H]1c2cc3c(c(O)c2[C@@H](O[C@@H]2O[C@@H](C)[C@H](OC)[C@@](C)(OC)[C@H]2OC)C[C@]1(C)O)C(=O)c1c(O)cc2c(c1C3=O)O[C@@H]1O[C@@]2(C)[C@H](O)[C@@H](N(C)C)[C@@H]1O [nogalamycin] | 0.049 µM |
| COc1ccc(C[C@H](N)C(=O)N[C@H]2[C@@H](O)[C@H](n3cnc4c(N(C)C)ncnc43)O[C@@H]2CO)cc1 [puromycin] | 0.384 µM |
| CC[C@]1(O)C[C@H]2CN(CCc3c([nH]c4ccccc34)[C@@](C(=O)OC)(c3cc4c(cc3OC)N(C=O)[C@H]3[C@@](O)(C(=O)OC)[C@H](OC(C)=O)[C@]5(CC)C=CCN6CC[C@]43[C@@H]65)C2)C1 [vincristine] | 0.009 µM |
